With O=C(O)c1ccc(-c2ccc3cc(O)c(C45CC6CC(CC(C6)C4)C5)cc3c2)cc1O the melting point was 261 to 264 °C. Cc1ccc(C(=O)Nc2ccc(NCC(C)O)c(C(F)(F)F)c2)cc1Nc1nccc(-c2cccnc2)n1 (centres undefined) gave a melting point of 184 to 186 °C. With Cc1cc2nc3ccccc3sc-2c(Br)c1=O the melting point was 190 °C. For NS(=O)(=O)c1ccc(-c2c(-c3ccccc3)noc2COCCO)cc1, the melting point was 110 to 121 °C. CCOc1cccc(-c2nc(=O)c3ccccc3s2)n1 gave a melting point of 180 °C. For COC(=O)c1ccc(CBr)c2occc12, the melting point was 73 to 80 °C. Work on CCCC1=C(C(=O)OCC)C(c2cccc(C(F)(F)F)c2Cl)c2c[nH]nc2N1 (centres undefined) yielded a melting point of 236 to 238 °C. Compound O=C(O)CCCCCO/N=C/c1cccnc1 has a melting point of 117 °C. For COCCCN1CC[C@@H](CNC(=O)c2cc(Cl)cc3c2OCCO3)[C@H](O)C1, the melting point was 110 °C. With CCS(=O)(=O)CCNc1c(S(C)=O)c(C#N)nn1-c1c(Cl)cc(C(F)(F)F)cc1Cl (centres undefined) the melting point was 131 to 132 °C. For CCOC(=O)c1nc2cc(N)ccn2n1, the melting point was 150 to 171 °C. Work on N#Cc1ccc2c(c1)C(=O)c1cc(N3CCCCC3)ccc1C2=O yielded a melting point of 274 to 275 °C. COC1=C(OC)C(=O)c2cc(Cl)ccc2C1=O gave a melting point of 125 to 126 °C. Work on O=C1CC(C(=O)O)(c2ccccc2)C1 yielded a melting point of 133 to 135 °C. With O=C(Nc1cccc2[nH]ccc12)C1(OCC2CO2)C=C(Cl)C=CC1 (centres undefined) the melting point was 175 °C. Work on O=C(O)Cc1c(Sc2ccccc2)c2cc(F)ccc2n1Cc1ccc(Cl)cc1 yielded a melting point of 168 °C. Work on CC(C)(C)c1ccccc1NC(=O)C(=O)O yielded a melting point of 111 to 113 °C. Compound O=C(O)c1ccc(Cc2ccccc2)[nH]1 has a melting point of 130 to 134 °C. In the case of O=c1ccc2cnc(Nc3ccccc3)nc2n1CCCOc1ccccc1, the melting point is reported as 175 to 176 °C. Compound COc1ccc(Cn2c(=O)c(C#N)c(Cl)c3cc(Cl)cnc32)cc1 has a melting point of 208 °C. For CC(C)(C)c1cc(C(C)(C)C)c(N)cc1N, the melting point was 153 to 154 °C. In the case of CCCN(CCC)C1CCc2cccc(-c3ccc4ccccc4n3)c2C1 (centres undefined), the melting point is reported as 82 °C. For CC(C)c1c(C=O)c(-c2ccc(F)cc2)c2ccccn12, the melting point was 94 to 95 °C. Work on CC[C@@H](C1CC1)n1cc(Cl)nc(N2CCc3cc(Br)cc(Br)c32)c1=O yielded a melting point of 165 °C. COc1cnc(OC)n2c(N)nnc12 gave a melting point of 232 to 235 °C. Work on CS(=O)(=O)Nc1ccc2c(c1)S(=O)(=O)NC(C1CCCCC1)N2 (centres undefined) yielded a melting point of 255 to 258 °C. Compound Cc1ccc(S(=O)(=O)OCC(=O)CC2CCC(C)CC2)cc1 (centres undefined) has a melting point of 42 to 43.5 °C. With CCCNc1c2c(nc3ccccc13)CCCC2=O the melting point was 145 °C. With O=C1Nc2ccc(S(=O)(=O)N3CCC[C@H]3CN3CCOCC3)cc2C1=O the melting point was 163 to 164 °C. CC1(C)OC(=S)Nc2ccc(-c3ccc(F)c(Cl)c3)cc21 showed a melting point of 196 to 197 °C. COc1ccc(CN(C)CCCCc2ccc(NC(=O)c3cccc4c(=O)c5cccc([N+](=O)[O-])c5[nH]c34)cc2)cc1OC showed a melting point of 174 °C. O=C(O)c1ccc(COc2ccc3cc(-c4ccc(-c5ccccc5)[nH]4)ccc3c2)c(C(=O)O)c1 showed a melting point of 289 to 291 °C. C=CCc1cc(Cc2cnc(N)nc2N)c2ccc(C)nc2c1O gave a melting point of 236 to 237 °C. Work on CC(=O)c1c(C)nc2c(OCc3c(Cl)ccc(S(=O)(=O)N4CCC[C@H]4C(=O)NCCCNC(=O)c4ccc(C=NN)cc4)c3Cl)cccn12 yielded a melting point of 158 to 160 °C. Work on C=CCc1cc2c(cc1O)CC(CCc1ccccc1)O2 (centres undefined) yielded a melting point of 79 to 80 °C. Work on CN1C(=O)N(c2ccccc2F)C(=O)C1=CC1CCCCC1 yielded a melting point of 131 to 137 °C. Compound Cc1cc(F)ccc1-c1nc(OCC(N)S(C)(=O)=O)nc2c1ccc(=O)n2-c1c(F)cccc1F (centres undefined) has a melting point of 95 to 99 °C. For COc1ccc(C(=O)Cc2ccncc2)cc1OC1CCCC1, the melting point was 102 to 103 °C. In the case of CCOC(=O)c1cn2c3c(c(C#N)ccc3c1=O)CCC2C (centres undefined), the melting point is reported as 249 to 251 °C. Work on COc1cc(C2CCN(CC(N)=O)CC2)ccc1Nc1ncc2ccc(-c3ccccc3OC)n2n1 yielded a melting point of 88 to 95 °C. With CC(C(=O)NC(=O)OC1CCCCC1)(c1ccccc1)c1ccccc1 the melting point was 126 °C. CCOc1ccc(-c2ccc3c(c2)C=C(C(=O)Nc2ccc(CN(C)C4CCC(=O)CC4)cc2)CCO3)cc1 gave a melting point of 146 to 148 °C. Compound CCOC(=O)C1(Cc2cccc(C)c2Br)CN(Cc2ccccc2)CCC1=O (centres undefined) has a melting point of 60 to 61 °C. CCCOc1ccc(S(=O)(=O)CCC)cc1C(N)=O showed a melting point of 168 to 170 °C. C=C(C)n1c(C)c(-c2ccc(F)cc2)c2cccnc21 gave a melting point of 84 to 87 °C. Work on O=C(OCC(F)(F)F)C(O)C(O)C(=O)OCC(F)(F)F (centres undefined) yielded a melting point of 77 to 79 °C. With CC(C)(C)OC(=O)N1CCCN(CC2=Nc3cccc4c(=O)[nH]nc(c34)N2)CC1 the melting point was 219 to 221 °C. In the case of O=C(Nc1cccc(S(=O)(=O)c2ccccn2)c1)C(O)(C(F)(F)F)C(F)(F)F, the melting point is reported as 264 to 267 °C. For CN1CCC(Oc2ccc(C#N)cc2C(F)(F)F)CC1, the melting point was 66 to 69 °C. In the case of NC(=O)C1CCN(c2c(Br)cncc2-c2ccccc2)CC1, the melting point is reported as 220 to 222 °C. Cc1c2ccccc2c(O[Si](C)(C)C(C)(C)C)c2occ(CCC=O)c12 showed a melting point of 152 to 154 °C. Cc1ccc(S(=O)(=O)Nc2cc3c(c(C(=O)O)c2)NCCC3)cc1 showed a melting point of 251 °C. CC1COc2c(N3CCC(n4ccnn4)C3)c(F)cc3c(=O)c(C(=O)O)cn1c23 (single isomer, unassigned; (-)) showed a melting point of 225 to 229 °C. COC(=O)c1c(Br)c(F)cc2nn(C)cc12 showed a melting point of 146 to 147 °C. For Cc1nc2cc3c(cc2[nH]1)NC(=O)C3(C)C, the melting point was > 300 °C. Work on CONS(=O)(=O)c1ccc(Cl)c(C(F)(F)F)c1 yielded a melting point of 88 to 90.5 °C. In the case of Cc1ccc(C)n1C1=CC2=C(CC1)CCc1[nH]c(=O)c(=O)n(OCC(=O)O)c12, the melting point is reported as > 260 °C. Work on CCOc1ccc2c(=O)cc(-c3ccccc3)oc2c1 yielded a melting point of 138 to 139 °C. C(=C\c1nc(COc2ccccc2CCCn2cncn2)co1)/c1ccccc1 gave a melting point of 72 to 73 °C. O=C(Cc1ccccc1[N+](=O)[O-])CN1C(=O)c2ccccc2C1=O gave a melting point of 179 to 182 °C. CN(Cc1ccccc1)c1ccccc1C(=O)O gave a melting point of 86 to 88 °C. For Cc1cnc2c(N)ccc(C)c2c1Cl, the melting point was 120 to 122 °C. In the case of O=C(O)c1ccc2c(c1)c(=O)[nH]c(=O)n2CCCCN1CCC(OC(c2ccccc2)c2ccccc2)CC1, the melting point is reported as 161 to 163 °C. For Cn1cc(CCl)c(=O)c2ccc(F)cc21, the melting point was 169 to 171 °C. CC(c1oc2ccccc2c(=O)c1-c1cccc(F)c1)n1nc(-c2ccco2)c2c(N)ncnc21 (centres undefined) showed a melting point of 234 to 236 °C. For CCOC(=O)C(=O)Nc1cc(NC=O)ccc1O, the melting point was > 300 °C. CC(C)(C)c1ccc(N2CCOCC2)c(N)c1 gave a melting point of 165 to 166 °C. Cc1nnc(-c2ccc3occ(-c4cccc(OCc5ccccc5)c4)c3c2)o1 gave a melting point of 96 to 97 °C. In the case of CC(C)Cc1nc(-c2ccccc2)cnc1O, the melting point is reported as 205 to 207 °C. Work on CC(=O)N1c2ccc(C#N)cc2C(Nc2ccc(Cl)cc2)CC1C (centres undefined) yielded a melting point of 212 to 213 °C. With C[C@@H]1COC2(CCCC2)N1C(=O)c1ccccc1 the melting point was 65.5 to 67.5 °C. CC(C)Oc1ccc2c(O)c(C(=O)NCCO)nc(Cl)c2c1 gave a melting point of 102 to 104 °C. Work on Cc1ccc2ccc3c(c2c1)CC(=O)O3 yielded a melting point of 170 to 171 °C. In the case of Nc1c2c(nc3cnccc13)CCCC2=O, the melting point is reported as 237 to 242 °C. In the case of O=C(CCCCCl)c1cc2c3c(c1)CCN3C(=O)CC2, the melting point is reported as 110 to 111 °C. For COc1ccc(C2=NN(c3ccc(NS(=O)(=O)c4ccc(C)cc4)cc3)C(=O)[C@H]3CC=CC[C@@H]23)cc1OC (relative stereo), the melting point was 229 to 230 °C. CC(=O)Nc1cc(C(O)CN(Cc2ccccc2)C(C)Cc2ccc(O)cc2)ccc1OCc1ccccc1 (centres undefined) gave a melting point of 141 to 143 °C. Cc1cc(C#N)cn2cc(-c3cccc(-c4ccc(C#N)cc4)c3)nc12 showed a melting point of 236 to 238 °C. For COc1cccc(Cc2ccccc2)c1C(=O)O, the melting point was 159 to 161 °C. In the case of COc1ccc(NS(=O)(=O)c2ccc(OC)c3c2c2ccccc2n3C=O)cc1, the melting point is reported as 190 to 192 °C. Work on COC(=O)c1cc(COc2ccccc2)cc(C(=O)OC)c1 yielded a melting point of 95 to 97 °C. With O=C(O)C1CCC(OCc2ccccc2)CC1 (centres undefined) the melting point was 55 to 64 °C. CCOC(=O)c1c(Cl)nc(-c2ccc(N)cc2)c(N)c1C(=O)OCC gave a melting point of 137 °C. CC(=O)OC1CCC2(C)C(=CCC3C2CCC2(C)C(n4cnc5ccccc54)=C(C=O)CC32)C1 (centres undefined) showed a melting point of 227 to 230 °C. CCCc1n[nH]c(=O)n1C gave a melting point of 77 °C. With CC(C)=CCN1c2ccccc2NC(=O)C1(C)C the melting point was 146 to 147 °C. For Cc1ccc(-c2nc(N)nc(N)n2)cn1, the melting point was > 260 °C. For O=C1C2CCCC2=Nc2ccc(Cl)cc2N1Cc1ccccc1 (centres undefined), the melting point was 134 to 136 °C. Work on CC(Cc1cccnc1)NC(=O)[C@@H]1C[C@H](C)CC[C@H]1C(C)C (some centres undefined) yielded a melting point of 108 to 110 °C. Compound CC(C)Oc1c(C(=O)Nc2nnn[nH]2)sc2c1CS(=O)CC2 (centres undefined) has a melting point of 225 to 226 °C. For Cc1cc(C)c(S(=O)(=O)NCCS)c(C)c1, the melting point was 73 °C. CCC1(CCCCCl)C(=O)Nc2cc(F)ccc21 (centres undefined) gave a melting point of 95 to 97 °C. With Oc1ccc(Cc2ncc[nH]2)cc1 the melting point was 188 to 190 °C. Work on CCOC(Cc1ccc(OCCN2CCSc3ccccc32)cc1)C(=O)NCc1ccccc1 (centres undefined) yielded a melting point of 92 to 93 °C. O=C1c2cccc3c(Br)ccc(c23)C(=O)N1O gave a melting point of 248 to 251 °C. In the case of O=C(O)Cc1noc2cc(F)ccc12, the melting point is reported as 132 to 133 °C. With O=C1CCC(=O)C(c2ccccc2)N1 (centres undefined) the melting point was 160 to 164 °C. Work on Cn1cc(-c2cc3cccnc3[nH]2)c2cc(C(=O)NCCN3CCOCC3)ccc21 yielded a melting point of 268 to 270 °C. O=C(NC(=O)c1ccccc1F)NC1CN2CCC1CC2 (centres undefined) showed a melting point of 187 to 188 °C. CC(=O)OC1CSC(Sc2ccc(C#N)cc2C#N)C(OC(C)=O)C1OC(C)=O (centres undefined) showed a melting point of 228 °C. Work on CNC1CCc2[nH]c3cccc(C)c3c2C1 (centres undefined) yielded a melting point of 163 to 166 °C. Work on O=C(Oc1cccc2c(C(=O)c3ccc(F)cc3)c(-c3ccc(OCCN4CCCC4)cc3)sc12)c1ccc(F)cc1 yielded a melting point of 64 to 68 °C. In the case of NCCCc1cn(S(=O)(=O)c2c(Cl)nc3sccn23)c2ccc(F)cc12, the melting point is reported as 139 to 141 °C. For CCOC(=O)c1ccc(NS(C)(=O)=O)c(N)c1, the melting point was 151 °C.
